The assay concerns the target Beta-3 Adrenergic Receptor (Homo sapiens (Human), UniProt P13945). Briefly: HTRF cAMP antagonist assay (IC50 determination). The format is cell-based. The settings on record: CHO-K1 cells stably expressing recombinant receptor; antagonism of isoproterenol at EC90; cAMP readout. In short, it runs like this: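 CHO-K1 cells stably expressing receptor, 1500 cells/well, preincubated briefly with 10-point 5-fold compound series (top final typically 10 or 100 μM) in PBS with 1 mM IBMX, then challenged with isoproterenol at EC90 for 1 h at room temperature. cAMP read by HTRF against on-plate standard curve; IC50 from dose-response.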
On the technique in general: In TR-FRET formats the signal depends on donor and acceptor labels being close together.

Drawing on patent US10927123B2, “Modulators of the beta-3 adrenergic receptor useful for the treatment or prevention of disorders related thereto” (Arena Pharmaceuticals, Inc., priority 2016, dated 2021), this text covers IC50 for 26 molecules.

As a reminder, the IC50 is the concentration that inhibits the measured activity by half.

Beta-3 Adrenergic Receptor, sequence (P13945 whole entry, species assumed): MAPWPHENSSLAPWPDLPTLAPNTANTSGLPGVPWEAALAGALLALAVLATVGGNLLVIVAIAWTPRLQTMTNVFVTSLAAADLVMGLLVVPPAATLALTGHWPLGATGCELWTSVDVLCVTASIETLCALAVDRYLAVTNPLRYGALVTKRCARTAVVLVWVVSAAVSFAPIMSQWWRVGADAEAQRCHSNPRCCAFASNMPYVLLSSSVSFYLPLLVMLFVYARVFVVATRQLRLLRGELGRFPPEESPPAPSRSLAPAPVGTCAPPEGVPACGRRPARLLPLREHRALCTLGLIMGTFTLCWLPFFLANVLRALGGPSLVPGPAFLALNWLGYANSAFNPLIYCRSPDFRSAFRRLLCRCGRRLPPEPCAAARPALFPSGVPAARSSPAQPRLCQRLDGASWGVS

Take `CN1CCOc2ncc(S(=O)(=O)N3CCC4(CC3)C[C@@H](NC[C@H](O)COc3cccc(CS(C)(=O)=O)c3)CO4)cc21` [Compound 104, (S)-1-((R)-8-(1-methyl-2,3-dihydro-1H-pyrido[2,3-b][1,4]oxazin-7-ylsulfonyl)-1-oxa-8-azaspiro[4.5]decan-3-ylamino)-3-(3-(methylsulfonylmethyl)phenoxy)propan-2-ol]: the IC50 was found to be 36.5 nM.

On to `O=S(=O)(CCO)c1cccc(OC[C@@H](O)CN[C@H]2COC3(CCN(S(=O)(=O)c4cccc5cnccc45)CC3)C2)c1` [Compound 105, (S)-1-(3-(2-hydroxyethylsulfonyl)phenoxy)-3-((R)-8-(isoquinolin-5-ylsulfonyl)-1-oxa-8-azaspiro[4.5]decan-3-ylamino)propan-2-ol], for which the half-inhibitory concentration (IC50) was determined as 277 nM.

With `CC(C)(CO)S(=O)(=O)c1cccc(OC[C@@H](O)CN[C@H]2COC3(CCN(S(=O)(=O)c4cnc5ccccc5c4)CC3)C2)c1` [Compound 106, 2-(3-((S)-2-hydroxy-3-((R)-8-(quinolin-3-ylsulfonyl)-1-oxa-8-azaspiro[4.5]decan-3-ylamino)propoxy)phenylsulfonyl)-2-methylpropan-1-ol], the IC50 amounted to 36.2 nM.

For the molecule `O=S(=O)(c1cnc2ccccc2c1)N1CCC2(CC1)C[C@@H](NC[C@H](O)COc1cccc(S(=O)(=O)C3(CO)CCC3)c1)CO2` [Compound 107, (S)-1-(3-(1-(hydroxymethyl)cyclobutylsulfonyl)phenoxy)-3-((R)-8-(quinolin-3-ylsulfonyl)-1-oxa-8-azaspiro[4.5]decan-3-ylamino)propan-2-ol], the IC50 came out at 25.7 nM.

As to `CC(C)(C(N)=O)S(=O)(=O)c1cccc(OC[C@@H](O)CN[C@H]2COC3(CCN(S(=O)(=O)c4cnc5ccccc5c4)CC3)C2)c1` [Compound 108, 2-(3-((S)-2-hydroxy-3-((R)-8-(quinolin-3-ylsulfonyl)-1-oxa-8-azaspiro[4.5]decan-3-ylamino)propoxy)phenylsulfonyl)-2-methylpropanamide], the IC50 was determined as 325 nM.

Regarding `CC(C)(CO)S(=O)(=O)c1cccc(OC[C@@H](O)CN[C@H]2COC3(CCN(S(=O)(=O)c4ccc5ncccc5c4)CC3)C2)c1` [Compound 109, 2-(3-((S)-2-hydroxy-3-((R)-8-(quinolin-6-ylsulfonyl)-1-oxa-8-azaspiro[4.5]decan-3-ylamino)propoxy)phenylsulfonyl)-2-methylpropan-1-ol], the IC50 was 145 nM.

In the case of `O=S(=O)(c1ccc2ncccc2c1)N1CCC2(CC1)C[C@@H](NC[C@H](O)COc1cccc(S(=O)(=O)C3(CO)CCC3)c1)CO2` [Compound 110, (S)-1-(3-(1-(hydroxymethyl)cyclobutylsulfonyl)phenoxy)-3-((R)-8-(quinolin-6-ylsulfonyl)-1-oxa-8-azaspiro[4.5]decan-3-ylamino)propan-2-ol], the half-inhibitory concentration (IC50) was 68.7 nM.

In the case of `CS(=O)(=O)c1cccc(OC[C@@H](O)CN[C@H]2COC3(CCN(S(=O)(=O)c4ccc5ncccc5c4)CC3)C2)c1` [Compound 111, (S)-1-(3-(methylsulfonyl)phenoxy)-3-((R)-8-(quinolin-6-ylsulfonyl)-1-oxa-8-azaspiro[4.5]decan-3-ylamino)propan-2-ol], the IC50 came out at 31.1 nM.

Consider `CCS(=O)(=O)c1cccc(OC[C@@H](O)CN[C@H]2COC3(CCN(S(=O)(=O)c4ccc5ncccc5c4)CC3)C2)c1` [Compound 112, (S)-1-(3-(ethylsulfonyl)phenoxy)-3-((R)-8-(quinolin-6-ylsulfonyl)-1-oxa-8-azaspiro[4.5]decan-3-ylamino)propan-2-ol], for which the half-inhibitory concentration (IC50) came out at 39.5 nM.

For `CC(C)S(=O)(=O)c1cccc(OC[C@@H](O)CN[C@H]2COC3(CCN(S(=O)(=O)c4ccc5ncccc5c4)CC3)C2)c1` [Compound 113, (S)-1-(3-(isopropylsulfonyl)phenoxy)-3-((R)-8-(quinolin-6-ylsulfonyl)-1-oxa-8-azaspiro[4.5]decan-3-ylamino)propan-2-ol], the concentration for half-maximal inhibition (IC50) came out at 26.8 nM.

On to `O=S(=O)(c1cccc(OC[C@@H](O)CN[C@H]2COC3(CCN(S(=O)(=O)c4ccc5ncccc5c4)CC3)C2)c1)C1CCC1` [Compound 114, (S)-1-(3-(cyclobutylsulfonyl)phenoxy)-3-((R)-8-(quinolin-6-ylsulfonyl)-1-oxa-8-azaspiro[4.5]decan-3-ylamino)propan-2-ol], for which the half-inhibitory concentration (IC50) was 52 nM.

As to `CCCS(=O)(=O)c1cccc(OC[C@@H](O)CN[C@H]2COC3(CCN(S(=O)(=O)c4ccc5ncccc5c4)CC3)C2)c1` [Compound 115, (S)-1-(3-(propylsulfonyl)phenoxy)-3-((R)-8-(quinolin-6-ylsulfonyl)-1-oxa-8-azaspiro[4.5]decan-3-ylamino)propan-2-ol], the half-inhibitory concentration (IC50) came out at 120 nM.

In the case of `CC(C)CS(=O)(=O)c1cccc(OC[C@@H](O)CN[C@H]2COC3(CCN(S(=O)(=O)c4ccc5ncccc5c4)CC3)C2)c1` [Compound 116, (S)-1-(3-(isobutylsulfonyl)phenoxy)-3-((R)-8-(quinolin-6-ylsulfonyl)-1-oxa-8-azaspiro[4.5]decan-3-ylamino)propan-2-ol], the IC50 turned out to be 320 nM.

On to `O=S(=O)(CC1CC1)c1cccc(OC[C@@H](O)CN[C@H]2COC3(CCN(S(=O)(=O)c4ccc5ncccc5c4)CC3)C2)c1` [Compound 117, (S)-1-(3-(cyclopropylmethylsulfonyl)phenoxy)-3-((R)-8-(quinolin-6-ylsulfonyl)-1-oxa-8-azaspiro[4.5]decan-3-ylamino)propan-2-ol], for which the IC50 was 172 nM.

Regarding `CS(=O)(=O)c1cccc(OC[C@@H](O)CN[C@H]2COC3(CCN(S(=O)(=O)c4cnc5ccccc5c4)CC3)C2)c1` [Compound 118, (S)-1-(3-(methylsulfonyl)phenoxy)-3-((R)-8-(quinolin-3-ylsulfonyl)-1-oxa-8-azaspiro[4.5]decan-3-ylamino)propan-2-ol], the concentration for half-maximal inhibition (IC50) was 10.4 nM.

For the molecule `CC(C)S(=O)(=O)c1cccc(OC[C@@H](O)CN[C@H]2COC3(CCN(S(=O)(=O)c4cnc5ccccc5c4)CC3)C2)c1` [Compound 119, (S)-1-(3-(isopropylsulfonyl)phenoxy)-3-((R)-8-(quinolin-3-ylsulfonyl)-1-oxa-8-azaspiro[4.5]decan-3-ylamino)propan-2-ol], the IC50 came out at 11.6 nM.

Consider `Cc1cccc(-c2cccc(S(=O)(=O)N3CCC4(CC3)C[C@H](NC[C@H](O)COc3cccc(S(=O)(=O)CCO)c3)CO4)c2)n1` [Compound 120, (5)-1-(3-(2-hydroxyethylsulfonyl)phenoxy)-3-((S)-8-(3-(6-methylpyridin-2-yl)phenylsulfonyl)-1-oxa-8-azaspiro[4.5]decan-3-ylamino)propan-2-ol], for which the IC50 is 177 nM.

As to `O=S(=O)(CCCO)c1cccc(OC[C@@H](O)CN[C@H]2COC3(CCN(S(=O)(=O)c4ccc5ncccc5c4)CC3)C2)c1` [Compound 121, 3-(3-((S)-2-hydroxy-3-((R)-8-(quinolin-6-ylsulfonyl)-1-oxa-8-azaspiro[4.5]decan-3-ylamino)propoxy)phenylsulfonyl)propan-1-ol], the IC50 amounted to 562 nM.

As for `CCS(=O)(=O)c1cccc(OC[C@@H](O)CN[C@H]2COC3(CCN(S(=O)(=O)c4cnc5ccccc5c4)CC3)C2)c1` [Compound 122, (S)-1-(3-(ethylsulfonyl)phenoxy)-3-((R)-8-(quinolin-3-ylsulfonyl)-1-oxa-8-azaspiro[4.5]decan-3-ylamino)propan-2-ol], the IC50 amounted to 7.81 nM.

Consider `CC(C)CS(=O)(=O)c1cccc(OC[C@@H](O)CN[C@H]2COC3(CCN(S(=O)(=O)c4cnc5ccccc5c4)CC3)C2)c1` [Compound 124, (S)-1-(3-(isobutylsulfonyl)phenoxy)-3-((R)-8-(quinolin-3-ylsulfonyl)-1-oxa-8-azaspiro[4.5]decan-3-ylamino)propan-2-ol], for which the half-inhibitory concentration (IC50) came to 78.2 nM.

Consider `O=S(=O)(CCO)c1cccc(OC[C@@H](O)CN[C@H]2COC3(CCN(S(=O)(=O)c4cccc(-c5cccc(C(F)(F)F)n5)c4)CC3)C2)c1` [Compound 125, (S)-1-(3-(2-hydroxyethylsulfonyl)phenoxy)-3-((R)-8-(3-(6-(trifluoromethyl)pyridin-2-yl)phenylsulfonyl)-1-oxa-8-azaspiro[4.5]decan-3-ylamino)propan-2-ol], for which the half-maximal inhibitory concentration (IC50) amounted to 48.8 nM.

As to `O=S(=O)(CCO)c1cccc(OC[C@@H](O)CN[C@H]2COC3(CCN(S(=O)(=O)c4cccc(-c5ncccc5F)c4)CC3)C2)c1` [Compound 126, (S)-1-((R)-8-(3-(3-fluoropyridin-2-yl)phenylsulfonyl)-1-oxa-8-azaspiro[4.5]decan-3-ylamino)-3-(3-(2-hydroxyethylsulfonyl)phenoxy)propan-2-ol], the IC50 was determined as 126 nM.

Regarding `Cc1ccc(-c2cccc(S(=O)(=O)N3CCC4(CC3)C[C@@H](NC[C@H](O)COc3cccc(S(=O)(=O)CCO)c3)CO4)c2)nc1` [Compound 127, (S)-1-(3-(2-hydroxyethylsulfonyl)phenoxy)-3-((R)-8-(3-(5-methylpyridin-2-yl)phenylsulfonyl)-1-oxa-8-azaspiro[4.5]decan-3-ylamino)propan-2-ol], the half-maximal inhibitory concentration (IC50) is 157 nM.

For `Cc1cccc(-c2cccc(S(=O)(=O)N3CCC4(CC3)C[C@@H](NC[C@H](O)COc3cccc(S(=O)(=O)CCO)c3)CO4)c2)n1` [Compound 128, (S)-1-(3-(2-hydroxyethylsulfonyl)phenoxy)-3-((R)-8-(3-(6-methylpyridin-2-yl)phenylsulfonyl)-1-oxa-8-azaspiro[4.5]decan-3-ylamino)propan-2-ol], the concentration for half-maximal inhibition (IC50) was determined as 108 nM.

For `Cc1ccnc(-c2cccc(S(=O)(=O)N3CCC4(CC3)C[C@@H](NC[C@H](O)COc3cccc(S(=O)(=O)CCO)c3)CO4)c2)c1` [Compound 129, (S)-1-(3-(2-hydroxyethylsulfonyl)phenoxy)-3-((R)-8-(3-(4-methylpyridin-2-yl)phenylsulfonyl)-1-oxa-8-azaspiro[4.5]decan-3-ylamino)propan-2-ol], the half-inhibitory concentration (IC50) stood at 485 nM.

As for `O=S(=O)(c1cnc2ccccc2c1)N1CCC2(CC1)C[C@@H](NC[C@H](O)COc1cccc(S(=O)(=O)C(F)(F)CO)c1)CO2` [Compound 130, (S)-1-(3-(1,1-difluoro-2-hydroxyethylsulfonyl)phenoxy)-3-((R)-8-(quinolin-3-ylsulfonyl)-1-oxa-8-azaspiro[4.5]decan-3-ylamino)propan-2-ol], the 50% inhibitory concentration (IC50) stood at 12 nM.
